For the experiment, the target named is T1, mouse mincle (CLEC-4E) CRD, biotin-tagged (Mus musculus, UniProt Q9R0Q8).
T1 construct: gene Clec4e; minimal C-terminal carbohydrate-recognition domain (primers encode ACPLNWKHY... to ...PEISPLD) with C-terminal biotinylation tag GLNDIFEAQKIEWHE kept; immobilized on streptavidin wells
T1 sequence (Q9R0Q8 80-214): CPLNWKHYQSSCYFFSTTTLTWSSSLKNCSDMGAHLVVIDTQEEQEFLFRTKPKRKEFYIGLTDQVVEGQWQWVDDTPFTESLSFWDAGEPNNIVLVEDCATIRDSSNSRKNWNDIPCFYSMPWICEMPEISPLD
As to the kind of experiment: solid-phase competition with […]-Man-BSA reporter, CRD immobilized on streptavidin wells. Type of experiment: binding.

As to `OC[C@H]1O[C@H](O[C@H]2O[C@H](CO)[C@@H](O)[C@H](O)[C@H]2O)[C@H](O)[C@@H](O)[C@@H]1O` [trehalose], affinity was put at a Ki of 540 ± 180 µM.

The values are drawn from PMC4533885, “Mouse Mincle: Characterization as a Model for Human Mincle and Evolutionary Implications” (Molecules, 2015).
